Experimental data: ChEMBL document CHEMBL4052768, “Discovery of novel 2-(3-phenylpiperazin-1-yl)-pyrimidin-4-ones as glycogen synthase kinase-3β inhibitors” (Bioorg Med Chem Lett, 2017)

Legend:
[1] = target: Glycogen synthase kinase-3 beta (Homo sapiens, UniProt P49841); assay: Inhibition of recombinant human GSK-3beta using prephosphorylated GS-1 peptide as substrate after 1 hr in presence of [gamma-32P]ATP by liquid scintillation spectrometric method
Cytochrome P450 1A2 [2] = target: T1, Cytochrome P450 1A2 (Homo sapiens, UniProt P05177); assay: Inhibition of CYP1A2 in human liver microsomes; assay type: ADME
T1 sequence (P05177 whole entry): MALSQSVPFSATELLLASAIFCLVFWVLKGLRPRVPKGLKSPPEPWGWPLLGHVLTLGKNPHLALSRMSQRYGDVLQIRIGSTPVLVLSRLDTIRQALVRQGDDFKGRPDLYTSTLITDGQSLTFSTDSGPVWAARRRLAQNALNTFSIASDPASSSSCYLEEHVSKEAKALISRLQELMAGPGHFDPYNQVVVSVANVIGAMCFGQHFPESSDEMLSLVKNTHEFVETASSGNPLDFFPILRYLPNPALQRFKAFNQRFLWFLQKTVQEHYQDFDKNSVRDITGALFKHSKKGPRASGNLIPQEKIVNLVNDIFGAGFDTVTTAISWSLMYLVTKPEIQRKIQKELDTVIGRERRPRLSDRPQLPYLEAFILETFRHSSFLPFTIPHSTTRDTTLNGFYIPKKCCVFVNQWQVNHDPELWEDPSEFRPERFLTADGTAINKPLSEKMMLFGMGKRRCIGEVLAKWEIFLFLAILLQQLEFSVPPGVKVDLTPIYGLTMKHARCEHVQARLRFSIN

Cytochrome P450 2D6 [3] = target: T2, Cytochrome P450 2D6 (Homo sapiens, UniProt P10635); assay: Inhibition of recombinant human CYP2D6; assay type: ADME
T2 sequence (P10635 whole entry): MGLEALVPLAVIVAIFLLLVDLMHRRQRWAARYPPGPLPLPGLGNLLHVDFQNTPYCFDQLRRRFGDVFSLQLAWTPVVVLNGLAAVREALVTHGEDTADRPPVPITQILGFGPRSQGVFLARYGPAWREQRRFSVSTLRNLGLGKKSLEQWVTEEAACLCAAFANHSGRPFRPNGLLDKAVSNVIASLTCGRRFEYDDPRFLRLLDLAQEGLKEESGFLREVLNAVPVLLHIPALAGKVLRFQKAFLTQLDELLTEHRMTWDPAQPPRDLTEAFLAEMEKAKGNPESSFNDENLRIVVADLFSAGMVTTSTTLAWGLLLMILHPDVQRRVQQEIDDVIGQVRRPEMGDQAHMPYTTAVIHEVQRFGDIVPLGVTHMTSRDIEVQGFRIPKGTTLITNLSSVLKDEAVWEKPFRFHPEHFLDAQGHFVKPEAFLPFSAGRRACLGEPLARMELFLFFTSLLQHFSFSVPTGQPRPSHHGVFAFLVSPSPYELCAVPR

Cytochrome P450 3A4 [4] = target: T3, Cytochrome P450 3A4 (Homo sapiens, UniProt P08684); assay: Inhibition of recombinant human CYP3A4; assay type: ADME
T3 sequence (P08684 whole entry): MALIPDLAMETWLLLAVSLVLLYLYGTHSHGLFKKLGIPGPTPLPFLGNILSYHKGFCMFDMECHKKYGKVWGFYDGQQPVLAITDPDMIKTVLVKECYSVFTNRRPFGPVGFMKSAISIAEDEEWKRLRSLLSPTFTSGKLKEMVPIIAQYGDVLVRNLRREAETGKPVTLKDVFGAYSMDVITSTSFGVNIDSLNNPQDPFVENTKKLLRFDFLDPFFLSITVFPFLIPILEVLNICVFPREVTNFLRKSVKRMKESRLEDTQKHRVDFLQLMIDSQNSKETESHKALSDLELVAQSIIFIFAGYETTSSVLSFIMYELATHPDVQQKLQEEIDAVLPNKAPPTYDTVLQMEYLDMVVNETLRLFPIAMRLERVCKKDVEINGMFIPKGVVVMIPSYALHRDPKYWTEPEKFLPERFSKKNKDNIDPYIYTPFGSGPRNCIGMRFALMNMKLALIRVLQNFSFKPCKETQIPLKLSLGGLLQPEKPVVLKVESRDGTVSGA

Cytochrome P450 1A2 [5] = target: T1, Cytochrome P450 1A2; assay: Inhibition of recombinant human CYP1A2; assay type: ADME
Cytochrome P450 2D6 [6] = target: T2, Cytochrome P450 2D6; assay: Inhibition of CYP2D6 in human liver microsomes; assay type: ADME
Cytochrome P450 3A4 [7] = target: T3, Cytochrome P450 3A4; assay: Inhibition of CYP3A4 in human liver microsomes; assay type: ADME

Sequence of Glycogen synthase kinase-3 beta (P49841 whole entry): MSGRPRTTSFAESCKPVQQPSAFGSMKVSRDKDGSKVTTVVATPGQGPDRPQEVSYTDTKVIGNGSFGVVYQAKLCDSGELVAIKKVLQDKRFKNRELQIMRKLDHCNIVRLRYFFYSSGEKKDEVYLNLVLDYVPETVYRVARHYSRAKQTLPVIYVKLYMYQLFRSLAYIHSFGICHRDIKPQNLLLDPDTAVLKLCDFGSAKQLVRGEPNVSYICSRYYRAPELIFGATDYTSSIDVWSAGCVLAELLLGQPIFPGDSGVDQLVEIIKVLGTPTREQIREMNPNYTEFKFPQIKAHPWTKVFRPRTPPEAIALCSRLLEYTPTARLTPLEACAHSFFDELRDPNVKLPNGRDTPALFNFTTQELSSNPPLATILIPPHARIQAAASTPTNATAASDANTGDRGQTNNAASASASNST

IC50 [1] [nM] | SMILES | further results
4.3 | Cn1c(N2CCNC(c3ccccc3Br)C2)nc(-c2ccncn2)cc1=O (racemic) | 
6.7 | COc1cccc(C2CN(c3nc(-c4ccncn4)cc(=O)n3C)CCN2)c1 (racemic) | 
1200 | COc1cc(F)ccc1C1CN(c2nc(-c3ccncc3)cc(=O)n2C)CCN1Cc1ccccc1 (stereo unspecified) | 
1500 | COc1cc(F)ccc1C1CN(c2nc(-c3ccncn3)cc(=O)n2C)CCN1C(C)=O (stereo unspecified) | 
6.6 | Cn1c(N2CCNC(c3ccc(Cl)cc3)C2)nc(-c2ccncc2)cc1=O (racemic) | 
24 | Cc1cc(F)ccc1C1CN(c2nc(-c3ccncc3)cc(=O)n2C)CCN1 (stereo unspecified) | 
8.1 | Cn1c(N2CCNC(c3ccc(Br)cc3)C2)nc(-c2ccncn2)cc1=O (racemic) | 
11 | Cn1c(N2CCN[C@@H](c3ccc(Cl)cc3)C2)nc(-c2ccncc2)cc1=O | 
15 | Cn1c(N2CCNC(c3ccc(C#N)cc3)C2)nc(-c2ccncc2)cc1=O (racemic) | 
5.4 | Cn1c(N2CCNC(c3cccc(Cl)c3)C2)nc(-c2ccncc2)cc1=O (racemic) | 
1.7 | Cn1c(N2CCNC(c3ccc(Cl)cc3)C2)nc(-c2ccncn2)cc1=O (racemic) | 
26 | COc1cc(F)ccc1C1CN(c2nc(-c3ccncn3)cc(=O)n2C)CCN1C (stereo unspecified) | 
13 | Cn1c(N2CCNC(c3ccccc3Br)C2)nc(-c2ccncc2)cc1=O (racemic) | 
4.3 | Cn1c(N2CCNC(c3ccc(Cl)c(Cl)c3)C2)nc(-c2ccncc2)cc1=O (stereo unspecified) | 
56 | COc1cc(F)ccc1C1CN(c2nc(-c3ccncc3)cc(=O)n2C)CCN1C (stereo unspecified) | 
11 | Cn1c(N2CCNC(c3ccccc3F)C2)nc(-c2ccncc2)cc1=O (stereo unspecified) | 
2 | COc1cc(F)cc(F)c1C1CN(c2nc(-c3ccncc3)cc(=O)n2C)CCN1 (stereo unspecified) | 
2.6 | Cn1c(N2CCNC(c3ccccc3Cl)C2)nc(-c2ccncn2)cc1=O (racemic) | 
1.1 | Cn1c(N2CCNC(c3cccc(Cl)c3)C2)nc(-c2ccncn2)cc1=O (racemic) | 
2 | Cn1c(N2CCNC(c3cccc(Br)c3)C2)nc(-c2ccncn2)cc1=O (racemic) | 
9.6 | Cn1c(N2CCNC(c3ccccc3Cl)C2)nc(-c2ccncc2)cc1=O (racemic) | 
0.25 | COc1cc(F)ccc1C1CN(c2nc(-c3ccncn3)cc(=O)n2C)CCN1 (single isomer, unassigned; enantiomer 2) | IC50 (Cytochrome P450 1A2 [2]): > 53000 nM; IC50 (Cytochrome P450 2D6 [3]): 9100 nM
8.6 | Cn1c(N2CCNC(c3ccc(F)cc3)C2)nc(-c2ccncn2)cc1=O (racemic) | 
12 | Cn1c(N2CCNC(c3cccc(F)c3)C2)nc(-c2ccncn2)cc1=O (racemic) | 
110 | Cn1c(N2CCN[C@H](c3ccc(Cl)cc3)C2)nc(-c2ccncc2)cc1=O | 
2.3 | Cn1c(N2CCNC(c3ccc(Cl)c(Cl)c3)C2)nc(-c2ccncn2)cc1=O (stereo unspecified) | 

IC50 [1] [nM] | SMILES | further results
18 | Cn1c(N2CCNC(c3ccccc3)C2)nc(-c2ccncc2)cc1=O (racemic) | 
3.5 | COc1ccc(C2CN(c3nc(-c4ccncn4)cc(=O)n3C)CCN2)cc1 (racemic) | 
7.4 | Cn1c(N2CCNC(c3ccc(C#N)cc3)C2)nc(-c2ccncn2)cc1=O (racemic) | 
44 | COc1cc(F)ccc1C1CN(c2nc(-c3ccncn3)cc(=O)n2C)CCN1 (single isomer, unassigned; Enantiomer-1) | IC50 (Cytochrome P450 1A2 [2]): > 53000 nM; IC50 (Cytochrome P450 2D6 [3]): 3400 nM; IC50 (Cytochrome P450 3A4 [4]): > 50000 nM
1.7 | COc1cc(F)cc(F)c1C1CN(c2nc(-c3ccncn3)cc(=O)n2C)CCN1 (stereo unspecified) | 
1.2 | Cn1c(N2CCN[C@@H](c3ccc(Cl)cc3)C2)nc(-c2ccncn2)cc1=O | 
0.9 | COc1cc(F)ccc1C1CN(c2nc(-c3ccncc3)cc(=O)n2C)CCN1 (racemic) | IC50 (Cytochrome P450 1A2 [2]): > 53000 nM; IC50 (Cytochrome P450 2D6 [3]): 1800 nM; IC50 (Cytochrome P450 3A4 [4]): > 53000 nM
11 | COc1cccc(C2CN(c3nc(-c4ccncc4)cc(=O)n3C)CCN2)c1 (racemic) | IC50 (Cytochrome P450 2D6 [3]): 400 nM; IC50 (Cytochrome P450 3A4 [4]): > 50000 nM; IC50 (Cytochrome P450 1A2 [5]): > 50000 nM
20 | CCOc1ccccc1C1CN(c2nc(-c3ccncn3)cc(=O)n2C)CCN1 (stereo unspecified) | 
18 | Cn1c(N2CCNC(c3ccc(F)cc3)C2)nc(-c2ccncc2)cc1=O (racemic) | 
22 | Cn1c(N2CCNC(c3cccc(F)c3)C2)nc(-c2ccncc2)cc1=O (racemic) | 
5.2 | COc1ccc(C2CN(c3nc(-c4ccncc4)cc(=O)n3C)CCN2)cc1OC (stereo unspecified) | 
26 | Cn1c(N2CCN[C@H](c3ccc(Cl)cc3)C2)nc(-c2ccncn2)cc1=O | 
1700 | COc1cc(F)ccc1C1CN(c2nc(-c3ccncc3)cc(=O)n2C)CCN1C(C)=O (stereo unspecified) | 
0.4 | COc1cc(F)ccc1C1CN(c2nc(-c3ccncc3)cc(=O)n2C)CCN1 (single isomer, unassigned; enantiomer 2) | IC50 (Cytochrome P450 1A2 [2]): > 53000 nM; IC50 (Cytochrome P450 2D6 [3]): 6000 nM; IC50 (Cytochrome P450 3A4 [4]): > 50000 nM
25 | CCOc1ccccc1C1CN(c2nc(-c3ccncc3)cc(=O)n2C)CCN1 (stereo unspecified) | 
7.8 | COc1ccc(C2CN(c3nc(-c4ccncn4)cc(=O)n3C)CCN2)cc1OC (stereo unspecified) | 
4.7 | COc1ccc(C2CN(c3nc(-c4ccncc4)cc(=O)n3C)CCN2)cc1 (racemic) | IC50 (Cytochrome P450 1A2 [2]): > 53000 nM; IC50 (Cytochrome P450 2D6 [6]): 45000 nM; IC50 (Cytochrome P450 3A4 [7]): > 53000 nM
22 | Cn1c(N2CCNC(c3ccc(Br)cc3)C2)nc(-c2ccncc2)cc1=O (racemic) | 
0.72 | COc1cc(F)ccc1C1CN(c2nc(-c3ccncn3)cc(=O)n2C)CCN1 (racemic) | IC50 (Cytochrome P450 1A2 [2]): > 53000 nM; IC50 (Cytochrome P450 2D6 [3]): 2700 nM
54 | COc1cc(F)ccc1C1CN(c2nc(-c3ccncc3)cc(=O)n2C)CCN1 (single isomer, unassigned; enantiomer 1) | IC50 (Cytochrome P450 1A2 [2]): > 53000 nM; IC50 (Cytochrome P450 2D6 [3]): 1000 nM; IC50 (Cytochrome P450 3A4 [4]): > 50000 nM
1.8 | COc1ccccc1C1CN(c2nc(-c3ccncc3)cc(=O)n2C)CCN1 (racemic) | IC50 (Cytochrome P450 2D6 [3]): < 200 nM; IC50 (Cytochrome P450 3A4 [4]): > 50000 nM; IC50 (Cytochrome P450 1A2 [5]): > 50000 nM
220 | COc1cc(F)ccc1C1CN(c2nc(-c3ccncn3)cc(=O)n2C)CCN1Cc1ccccc1 (stereo unspecified) | 
8.2 | Cn1c(N2CCNC(c3ccccc3F)C2)nc(-c2ccncn2)cc1=O (stereo unspecified) | 
1.8 | COc1ccccc1C1CN(c2nc(-c3ccncn3)cc(=O)n2C)CCN1 (stereo unspecified) | 
